Experimental data reported in ChEMBL document CHEMBL1201862, “PubChem BioAssay data set” (2004).
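Five concentrations, 48 hours, 96-well plates. GI50 = concentration required for 50% inhibition of growth.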 Calls of active or inactive are those of the source. No stated cut-off is given here; in the data, active = GI50 up to about 1.1 µM and inactive = higher.

Key:
Assay in all cases: inhibition of tumour cell growth, NCI panel, 48 h
[1] = test system: UACC-257
[2] = test system: Malme-3M
[3] = test system: HL-60
[4] = test system: HCT-116
[5] = test system: UACC-62
[6] = test system: UO-31
[7] = test system: Hs-578T
[8] = test system: CAKI-1
[9] = test system: COLO 205
[10] = test system: HOP-92
[11] = test system: MDA-MB-435
[12] = test system: NCI/ADR-RES
[13] = test system: U-251
[14] = test system: MOLT-4
[15] = test system: HCT-15
[16] = test system: M14
[17] = test system: OVCAR-3
[18] = test system: HCC 2998
[19] = test system: MDA-N
[20] = test system: RPMI-8226
[21] = test system: KM12
[22] = test system: OVCAR-5
[23] = test system: EKVX
[24] = test system: MDA-MB-231
[25] = test system: ACHN
[26] = test system: NCI-H226
[27] = test system: NCI-H460
[28] = test system: LOX IMVI
[29] = test system: A498
[30] = test system: SK-MEL-2
[31] = test system: SNB-75
[32] = test system: SNB-19
[33] = test system: A549
[34] = test system: SK-MEL-5
[35] = test system: SF-268
[36] = test system: OVCAR-8
[37] = test system: HT-29
[38] = test system: HOP-62
[39] = test system: TK-10
[40] = test system: SF-539
[41] = test system: CCRF-CEM
[42] = test system: SK-OV-3
[43] = test system: SF-295
[44] = test system: OVCAR-4
[45] = test system: DU-145
[46] = test system: SW-620
[47] = test system: NCI-H23
[48] = test system: K562
[49] = test system: SK-MEL-28
[50] = test system: BT-549
[51] = test system: 786-0
[52] = test system: MCF7
[53] = test system: SN12C
[54] = test system: RXF 393
[55] = test system: PC-3
[56] = test system: NCI-H522
[57] = test system: SR
[58] = test system: IGROV-1
[59] = test system: T47D

Measured: GI50

CC(C)C(=O)OCC1CCCN2CCCCC12 (stereo not drawn)
53 µM: [15]
inactive: [1] > 100 µM | [2] > 100 µM | [3] 39.8 µM | [4] 57.5 µM | [5] 68.1 µM | [6] 62.7 µM | [7] > 100 µM | [8] > 100 µM | [9] 51.1 µM | [10] > 100 µM | [11] > 100 µM | [12] > 100 µM | [13] > 100 µM | [14] 50.8 µM | [16] > 100 µM | [17] > 100 µM | [18] 28.8 µM | [19] > 100 µM | [20] 95.3 µM | [21] > 100 µM | [22] > 100 µM | [23] > 100 µM | [24] 45.4 µM | [25] > 100 µM | [26] > 100 µM | [27] 38.7 µM | [28] 82 µM | [29] > 100 µM | [30] > 100 µM | [31] > 100 µM | [32] > 100 µM | [33] 74 µM | [34] > 100 µM | [35] > 100 µM | [36] > 100 µM | [37] 30.5 µM | [38] > 100 µM | [39] > 100 µM | [40] > 100 µM | [41] 51.3 µM | [42] > 100 µM | [43] > 100 µM | [44] > 100 µM | [45] > 100 µM | [46] > 100 µM | [47] > 100 µM | [48] 51.3 µM | [49] 97.9 µM | [50] 21.5 µM | [51] 64.4 µM | [52] 48.1 µM | [53] > 100 µM | [54] > 100 µM | [55] 79.4 µM

COC(=O)[C@@H](O)[C@]1(C(=O)OC)C2O[C@@H](OC)[C@@H]1CCCCCC[C@H]2O
inactive: [1] > 100 µM | [2] > 100 µM | [4] > 100 µM | [5] > 100 µM | [6] > 100 µM | [7] > 100 µM | [8] > 100 µM | [9] > 100 µM | [11] > 100 µM | [12] > 100 µM | [13] > 100 µM | [14] > 100 µM | [16] > 100 µM | [17] > 100 µM | [18] > 100 µM | [19] > 100 µM | [20] > 100 µM | [21] > 100 µM | [22] > 100 µM | [23] > 100 µM | [24] > 100 µM | [25] > 100 µM | [26] > 100 µM | [27] > 100 µM | [28] > 100 µM | [30] 51.5 µM | [31] > 100 µM | [32] > 100 µM | [33] > 100 µM | [56] > 100 µM | [34] > 100 µM | [35] > 100 µM | [36] > 100 µM | [57] > 100 µM | [37] > 100 µM | [38] > 100 µM | [39] > 100 µM | [40] > 100 µM | [41] > 100 µM | [42] > 100 µM | [43] > 100 µM | [44] > 100 µM | [58] > 100 µM | [46] > 100 µM | [47] > 100 µM | [48] > 100 µM | [49] > 100 µM | [50] > 100 µM | [51] > 100 µM | [53] > 100 µM | [54] > 100 µM | [55] > 100 µM
> 100 µM: [15]

Cc1ccc(S(=O)(=O)NC(CCC(=O)NN)C(=O)NN)cc1 (stereo not drawn)
inactive: [1] > 100 µM | [2] > 100 µM | [3] > 100 µM | [4] > 100 µM | [5] > 100 µM | [6] > 100 µM | [7] > 100 µM | [8] > 100 µM | [9] > 100 µM | [10] > 100 µM | [11] > 100 µM | [12] > 100 µM | [13] > 100 µM | [14] > 100 µM | [16] > 100 µM | [17] > 100 µM | [19] > 100 µM | [20] > 100 µM | [21] > 100 µM | [22] > 100 µM | [23] > 100 µM | [24] > 100 µM | [59] > 100 µM | [25] > 100 µM | [26] > 100 µM | [28] > 100 µM | [29] > 100 µM | [30] > 100 µM | [31] > 100 µM | [32] > 100 µM | [33] > 100 µM | [56] > 100 µM | [34] > 100 µM | [35] > 100 µM | [36] > 100 µM | [57] > 100 µM | [37] > 100 µM | [38] > 100 µM | [39] > 100 µM | [40] > 100 µM | [41] > 100 µM | [42] > 100 µM | [43] > 100 µM | [44] 16.5 µM | [58] > 100 µM | [46] > 100 µM | [47] > 100 µM | [48] > 100 µM | [50] > 100 µM | [51] > 100 µM | [52] > 100 µM | [54] > 100 µM | [55] > 100 µM
0.304 µM: [15]
active: [27] 0.067 µM

Cc1ccc2c(c1)nc1n2C(c2c(F)cccc2F)SC1 (stereo not drawn)
27.9 µM: [15]
inactive: [1] 56.8 µM | [2] 18.9 µM | [4] 28.4 µM | [5] > 10 µM | [6] 26.9 µM | [7] 15.7 µM | [8] 27.9 µM | [9] 32.3 µM | [11] 29.6 µM | [12] 31.8 µM | [13] 39.8 µM | [14] 14.1 µM | [16] 51.1 µM | [17] 55.8 µM | [18] 32.1 µM | [19] 49.8 µM | [20] 34.4 µM | [21] 34.4 µM | [22] 57.4 µM | [23] 30.8 µM | [24] 41 µM | [59] 41.6 µM | [25] 35.2 µM | [26] 29 µM | [27] 52.8 µM | [28] 33.5 µM | [30] 20 µM | [31] 8.51 µM | [32] 64.1 µM | [33] 28.8 µM | [56] 31.5 µM | [34] > 10 µM | [35] 44.5 µM | [36] 39.5 µM | [57] 24.4 µM | [37] 28.8 µM | [38] 57 µM | [39] 81.1 µM | [40] 24.3 µM | [41] 21 µM | [42] 52.6 µM | [43] 35.1 µM | [44] > 100 µM | [58] 50.6 µM | [46] 31.9 µM | [47] 41.5 µM | [48] 22.3 µM | [49] 41 µM | [50] > 10 µM | [51] 32 µM | [52] 41.7 µM | [53] 39.4 µM | [54] 27 µM | [55] 20.7 µM
